The record followed here is PubChem BioAssay AID588580 (Sanford-Burnham Center for Chemical Genomics, 2011).

Activity calls are given as the source filed them.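 The calls were made as follows: active = mean EC50 of 20 µM or lower; inactive = the rest.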 A value given as a limit tells only on which side of the number the result lay.

The experiment concerns the target CHO XBP1-luciferase reporter, UPR activation, luminescence. The experiment in a line: XBP1 luciferase reporter activation in CHO cells – cell-based, luciferase luminescence, set 2, SAR follow-up (AID 588580). (In general: Reporter assays use an easily measured gene product as a stand-in for the process of interest.)
Consider `O=C(Nc1ccccc1Br)c1cc(-c2ccncc2)nc2ccccc12`, for which the EC50 (usually the concentration at which the effect is half-maximal) was > 80 µM (inactive).
Consider `Cc1cc(NC(=O)c2cc(-c3ccccc3)nc3ccccc23)ccc1Br`, for which the EC50 is > 80 µM (inactive).
In the case of `O=C(Nc1cc(F)ccc1F)c1cc(-c2ccncc2)nc2ccccc12`, the EC50 is > 80 µM (inactive).
Regarding `Cc1cc(NC(=O)c2cc(-c3ccncc3)nc3ccccc23)ccc1F`, the EC50 is > 80 µM (inactive).
As to `O=C(Nc1ccc(Cl)cc1)c1cc(-c2ccncc2)nc2ccccc12`, the EC50 is 8.42 µM.
Regarding `O=C(Nc1cccc(F)c1)c1cc(-c2ccncc2)nc2ccccc12`, the EC50 result was “inactive”.
As for `O=C(Nc1cccc(F)c1F)c1cc(-c2ccncc2)nc2ccccc12`, the EC50 was > 80 µM (inactive).
For the compound `O=C(Nc1cccc(C(F)(F)F)c1)c1cc(-c2ccncc2)nc2ccccc12`, the EC50 is > 80 µM (inactive).
As for `O=C(Nc1cccc(Cl)c1)c1cc(-c2ccncc2)nc2ccccc12`, the EC50 is > 80 µM (inactive).
`O=C(Nc1ccc(F)c(F)c1)c1cc(-c2ccncc2)nc2ccccc12`: the EC50 entry was “inactive”.
With `COc1cccc(NC(=O)c2cc(-c3ccncc3)nc3ccccc23)c1`, the EC50 was > 80 µM (inactive).
For `O=C(Nc1cccc(F)c1Br)c1cc(-c2ccncc2)nc2ccccc12`, the EC50 is > 80 µM (inactive).
`Cc1cc(Br)cc(NC(=O)c2cc(-c3ccncc3)nc3ccccc23)c1`: the EC50 is > 80 µM (inactive).
For `Cc1ccc(NC(=O)c2cc(-c3ccncc3)nc3ccccc23)cc1`, the EC50 is 13.4 µM.
Take `O=C(Nc1ccc(C(F)(F)F)cc1)c1cc(-c2ccncc2)nc2ccccc12`: the EC50 is 2.2 µM.
For `O=C(Nc1ccc(Br)c(C(F)(F)F)c1)c1cc(-c2ccncc2)nc2ccccc12`, the EC50 was > 80 µM (inactive).
On to `O=C(Nc1ccc(F)cc1)c1cc(-c2ccncc2)nc2ccccc12`, for which the EC50 result is “inactive”.
Turning to `O=C(Nc1cccc(Br)c1)c1cc(-c2ccncc2)nc2ccccc12`, the EC50 was > 80 µM (inactive).
As to `Cc1cccc(NC(=O)c2cc(-c3ccncc3)nc3ccccc23)c1`, the EC50 was > 80 µM (inactive).
With `Cc1cc(NC(=O)c2cc(-c3ccncc3)nc3ccccc23)ccc1Cl`, the EC50 result is “inactive”.
